# System: MDA-MB-231 multicell spheroids, viability
# Assay: Anticancer human tumor MDA-MB-231 cell line growth inhibition [PI3K];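 further: spheroids exposed to agents for seven days before reading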;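 on viability, T/C: percent of vehicle control luminescence with DMSO treated spheroids as 100%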
# Conditions: for viability, T/C: stronger effect = lower value
# Text: Combinatorial screen of targeted agents with the PI3K inhibitors inavolisib, alpelisib, duvelisib, and copanlisib in multi-cell type tumor spheroids
# A high-throughput screen of multi-cell type tumor spheroids was designed to identify active combinations of targeted small molecules and PI3K pathway inhibitors. Complex spheroids include a stromal component modeled by human endothelial cells (HUVEC) and fibroblasts modeled by human mesenchymal stem cells (MSCs). The concentration ranges selected for each drug and investigational agent were based upon clinically achievable concentrations if the clinical Cmax of the agent was known.
# Compounds. The drugs and investigational agents: inavolisib (NSC800729), alpelisib (NSC765974), duvelisib (NSC772469), copanlisib (NSC816437), ipatasertib (NSC767898), afuresertib (NSC778305), talazoparib (NSC767125), sapanisertib (NSC764658), selumetinib (NSC741078), tovorafenib (DAY101, NSC766906), vemurafenib (NSC761431), ravoxertinib (NSC781343), sotorasib (NSC818433), MRTX1133 (NSC 836407), abemaciclib (NSC 768073), palbociclib (NSC758247), venetoclax (NSC 766270), SY5609 (NSC837396), enzalutamide (NSC755605), and darolutamide (NSC825331), were obtained from the National Cancer Institute (NCI) Developmental Therapeutics Program Chemical Repository. The FDA-approved anticancer drug set is available from the NCI Developmental Therapeutics Program. […] The stock solutions were prepared in dimethyl sulfoxide (DMSO, Sigma-Aldrich, St. Louis, MO, cat. D2650) at 800-fold the tested concentration and stored at -70 degrees C prior to their use. All drugs and investigational agents were tested over a range starting from a high concentration at or near the clinical Cmax and decreasing in half-log increments. If the clinical Cmax for an agent had not been determined, the highest concentration tested was 10 microM.
# Cell Culture. All cells were maintained in an incubator at 37 degrees C and 5% CO2 with 95% humidity. The PDC lines were cultured according to standard operating procedures established by the NCI PDMR (https://pdmr.cancer.gov/sops/default.htm). All PDCs were thawed and cultured in Matrigel-coated flasks prepared with a working solution of 1X Ham's F-12 nutrient mix, without supplementation (Invitrogen, Waltham, MA, cat. 11765054), 100 U/mL penicillin-streptomycin (Invitrogen, cat. 15140122), and 2.5% Matrigel (Corning Inc., Corning, NY, cat. 354248) for the first three passages. The 354836-022-R-J1-PDC, 475296-252-R-J1-PDC, and 997726-040-R-J2-PDC lines were cultured in 6A media, which includes advanced DMEM/F-12 (Thermo Fisher Scientific, cat. 12634028), 10 mM HEPES (Thermo Fisher Scientific, cat. 15630080), 1X GlutaMAX supplement (Thermo Fisher Scientific, cat. 35050061), 0.1 mg/mL primocin (InvivoGen, San Diego, CA, cat. ant-pm-2), 10% defined fetal bovine serum, heat inactivated (HyClone Laboratories Inc., Logan, UT, cat. SH30070.03HI), 50% L-WRN conditioned media (ATCC, cat. CRL-3276), 1.25 mM N-Acetyl-L-cysteine (Sigma-Aldrich, cat. A9165), 10 mM nicotinamide (Sigma-Aldrich, cat. N0636), 1X B-27 supplement (Thermo Fisher Scientific, cat. 17504044), 1X N-2 supplement (Thermo Fisher Scientific, cat. 17502048), and 10 microM Y-27632 dihydrochloride (Tocris Bioscience, Bristol, United Kingdom, cat. 1254). The 624824-186-R-J2-PDC line was cultured in 6C/Colon 1B media, which includes all 6A media components plus 50 ng/mL human EGF recombinant protein (Thermo Fisher Scientific, cat. PHG0311). […]
# [1] = curve of first compound, second compound 0.00316 µM
# [2] = curve of first compound, second compound 0.01 µM
# [3] = curve of first compound, second compound 0.0316 µM
# [4] = curve of first compound, second compound 0.1 µM
# [5] = curve of first compound, second compound 0.316 µM
# [6] = curve of first compound, second compound 1 µM
# [7] = second compound 0.00316 µM, first compound 0.0316 µM
# [8] = second compound 0.00316 µM, first compound 0.1 µM
# [9] = second compound 0.00316 µM, first compound 0.316 µM
# [10] = second compound 0.00316 µM, first compound 1 µM
# [11] = second compound 0.00316 µM, first compound 3.16 µM
# [12] = second compound 0.00316 µM, first compound 10 µM
# [13] = second compound 0.01 µM, first compound 0.0316 µM
# [14] = second compound 0.01 µM, first compound 0.1 µM
# [15] = second compound 0.01 µM, first compound 0.316 µM
# [16] = second compound 0.01 µM, first compound 1 µM
# [17] = second compound 0.01 µM, first compound 3.16 µM
# [18] = second compound 0.01 µM, first compound 10 µM
# [19] = second compound 0.0316 µM, first compound 0.0316 µM
# [20] = second compound 0.0316 µM, first compound 0.1 µM
# [21] = second compound 0.0316 µM, first compound 0.316 µM
# [22] = second compound 0.0316 µM, first compound 1 µM
# [23] = second compound 0.0316 µM, first compound 3.16 µM
# [24] = second compound 0.0316 µM, first compound 10 µM
# [25] = second compound 0.1 µM, first compound 0.0316 µM
# [26] = second compound 0.1 µM, first compound 0.1 µM
# [27] = second compound 0.1 µM, first compound 0.316 µM
# [28] = second compound 0.1 µM, first compound 1 µM
# [29] = second compound 0.1 µM, first compound 3.16 µM
# [30] = second compound 0.1 µM, first compound 10 µM
# [31] = second compound 0.316 µM, first compound 0.0316 µM
# [32] = second compound 0.316 µM, first compound 0.1 µM
# [33] = second compound 0.316 µM, first compound 0.316 µM
# [34] = second compound 0.316 µM, first compound 1 µM
# [35] = second compound 0.316 µM, first compound 3.16 µM
# [36] = second compound 0.316 µM, first compound 10 µM
# [37] = second compound 1 µM, first compound 0.0316 µM
# [38] = second compound 1 µM, first compound 0.1 µM
# [39] = second compound 1 µM, first compound 0.316 µM
# [40] = second compound 1 µM, first compound 1 µM
# [41] = second compound 1 µM, first compound 3.16 µM
# [42] = second compound 1 µM, first compound 10 µM
structure (smiles),measurement,setting,value
CC1(C)CCC(Nc2ncc(C(F)(F)F)c(-c3c[nH]c4c(P(C)(C)=O)c(C#N)ccc34)n2)CN1 (stereo not drawn) + COc1c(OCCCN2CCOCC2)ccc2c3n(c(=NC(=O)c4cnc(N)nc4)nc12)CCN3,IC50,[1],3280 nM
same,IC50,[2],< 31.6 nM
same,IC50,[3],< 31.6 nM
same,IC50,[4],< 31.6 nM
same,IC50,[5],< 31.6 nM
same,IC50,[6],< 31.6 nM
same,"viability, T/C",[7],52.3%
same,"viability, T/C",[8],45%
same,"viability, T/C",[9],49.5%
same,"viability, T/C",[10],55%
same,"viability, T/C",[11],55.7%
same,"viability, T/C",[12],4.47%
same,"viability, T/C",[13],48.4%
same,"viability, T/C",[14],43.3%
same,"viability, T/C",[15],45.8%
same,"viability, T/C",[16],50.7%
same,"viability, T/C",[17],45.2%
same,"viability, T/C",[18],3.69%
same,"viability, T/C",[19],42.3%
same,"viability, T/C",[20],43.2%
same,"viability, T/C",[21],38.2%
same,"viability, T/C",[22],41.5%
same,"viability, T/C",[23],38.8%
same,"viability, T/C",[24],3.49%
same,"viability, T/C",[25],35.4%
same,"viability, T/C",[26],31.1%
same,"viability, T/C",[27],31.5%
same,"viability, T/C",[28],30.6%
same,"viability, T/C",[29],30.7%
same,"viability, T/C",[30],3.64%
same,"viability, T/C",[31],24.9%
same,"viability, T/C",[32],23.2%
same,"viability, T/C",[33],23.9%
same,"viability, T/C",[34],24.6%
same,"viability, T/C",[35],24.8%
same,"viability, T/C",[36],2.87%
same,"viability, T/C",[37],21.9%
same,"viability, T/C",[38],20.9%
same,"viability, T/C",[39],20.7%
same,"viability, T/C",[40],22%
same,"viability, T/C",[41],21.9%
same,"viability, T/C",[42],2.6%
CC(Cn1ccc(-c2ccc(C#N)c(Cl)c2)n1)NC(=O)c1cc(C(C)O)[nH]n1 (stereo not drawn) + COc1c(OCCCN2CCOCC2)ccc2c3n(c(=NC(=O)c4cnc(N)nc4)nc12)CCN3,IC50,[1],> 10000 nM
same,IC50,[2],> 10000 nM
same,IC50,[3],> 10000 nM
same,IC50,[4],< 31.6 nM
same,IC50,[5],< 31.6 nM
same,IC50,[6],< 31.6 nM
same,"viability, T/C",[7],90%
same,"viability, T/C",[8],93.5%
same,"viability, T/C",[9],106%
same,"viability, T/C",[10],96.9%
same,"viability, T/C",[11],91.9%
same,"viability, T/C",[12],84.2%
same,"viability, T/C",[13],76.8%
same,"viability, T/C",[14],83.2%
same,"viability, T/C",[15],80.1%
same,"viability, T/C",[16],82.6%
same,"viability, T/C",[17],77.6%
same,"viability, T/C",[18],67.9%
same,"viability, T/C",[19],60.8%
same,"viability, T/C",[20],63.9%
same,"viability, T/C",[21],60.8%
same,"viability, T/C",[22],62.5%
same,"viability, T/C",[23],55%
same,"viability, T/C",[24],46.2%
same,"viability, T/C",[25],44.4%
same,"viability, T/C",[26],47.1%
same,"viability, T/C",[27],44.1%
same,"viability, T/C",[28],47.3%
same,"viability, T/C",[29],45.1%
same,"viability, T/C",[30],37.6%
same,"viability, T/C",[31],31.6%
same,"viability, T/C",[32],30.3%
same,"viability, T/C",[33],31.4%
same,"viability, T/C",[34],32%
same,"viability, T/C",[35],29.6%
same,"viability, T/C",[36],26.1%
same,"viability, T/C",[37],24.4%
same,"viability, T/C",[38],24.8%
same,"viability, T/C",[39],24.6%
same,"viability, T/C",[40],25.3%
same,"viability, T/C",[41],24.8%
same,"viability, T/C",[42],22.4%
CCCS(=O)(=O)Nc1ccc(F)c(C(=O)c2c[nH]c3ncc(-c4ccc(Cl)cc4)cc23)c1F + Cc1nc(NC(=O)N2CCCC2C(N)=O)sc1-c1ccnc(C(C)(C)C(F)(F)F)c1,IC50,[3],4680 nM
same,IC50,[4],3510 nM
same,IC50,[5],2520 nM
same,IC50,[6],1540 nM
same,IC50,"curve of first compound, second compound 3.16 µM",1170 nM
same,IC50,"curve of first compound, second compound 10 µM",359 nM
same,"viability, T/C",[19],102%
same,"viability, T/C",[20],102%
same,"viability, T/C",[21],85.5%
same,"viability, T/C",[22],80%
same,"viability, T/C",[23],59.4%
same,"viability, T/C",[24],31.7%
same,"viability, T/C",[25],90.6%
same,"viability, T/C",[26],96.6%
same,"viability, T/C",[27],83.6%
same,"viability, T/C",[28],74.1%
same,"viability, T/C",[29],51.6%
same,"viability, T/C",[30],32.6%
same,"viability, T/C",[31],80.4%
same,"viability, T/C",[32],80.8%
same,"viability, T/C",[33],72.7%
same,"viability, T/C",[34],67.2%
same,"viability, T/C",[35],45.3%
same,"viability, T/C",[36],31.4%
same,"viability, T/C",[37],72.3%
same,"viability, T/C",[38],66.6%
same,"viability, T/C",[39],64.8%
same,"viability, T/C",[40],57.5%
same,"viability, T/C",[41],38.9%
same,"viability, T/C",[42],29%
same,"viability, T/C","second compound 3.16 µM, first compound 0.0316 µM",68.8%
same,"viability, T/C","second compound 3.16 µM, first compound 0.1 µM",64.8%
same,"viability, T/C","second compound 3.16 µM, first compound 0.316 µM",62.3%
same,"viability, T/C","second compound 3.16 µM, first compound 1 µM",51.2%
same,"viability, T/C","second compound 3.16 µM, first compound 3.16 µM",38.8%
same,"viability, T/C","second compound 3.16 µM, first compound 10 µM",25.9%
same,"viability, T/C","second compound 10 µM, first compound 0.0316 µM",61.1%
same,"viability, T/C","second compound 10 µM, first compound 0.1 µM",56%
same,"viability, T/C","second compound 10 µM, first compound 0.316 µM",50.3%
same,"viability, T/C","second compound 10 µM, first compound 1 µM",43%
same,"viability, T/C","second compound 10 µM, first compound 3.16 µM",36.8%
same,"viability, T/C","second compound 10 µM, first compound 10 µM",22.3%
COc1c(OCCCN2CCOCC2)ccc2c3n(c(=NC(=O)c4cnc(N)nc4)nc12)CCN3,"viability, T/C",compound 0.00316 µM,99.7% [middle of 8 runs]
same,"viability, T/C",compound 0.01 µM,79.4% [middle of 8 runs]
same,"viability, T/C",compound 0.0316 µM,61.3% [middle of 8 runs]
same,"viability, T/C",compound 0.1 µM,46.3% [middle of 8 runs]
same,"viability, T/C",compound 0.316 µM,31.6% [middle of 8 runs]
same,"viability, T/C",compound 1 µM,26% [middle of 8 runs]
same,IC50,"compound alone, run of 05/09/2023",73.8 nM [middle of 8 runs]
